For series [1] the following is noted: cited from earlier work.
Series [2] deals with guinea pigs. The following applies: guinea pig, in vivo.
Source text: (§1) In a preliminary test, 39 guinea pigs were used to define product concentration for intradermal injections. All were adult animals and sex was not considered. They were divided in 4 different cages, each containing 9, 10, 10 and 10 animals. […] Evaluations were taken after the 3rd and 7th day.
Series [3] has as its system skin. Briefly: Injection of GA alone, re-hydrating effect on the skin. It is filed as in vivo, human.
Series [4] concerns guinea pigs. Briefly: Preliminary test of glycolic acid concentration for intradermal injections in guinea pigs.
Source text: as §1
For series [5], the system named is human patients. Briefly: Intradermal application of glycolic acid in human patients. Type of series: in vivo. The following applies: 35 human patients, intradermal application of 5 ml at 0.01%.
Series [6] deals with human patients. The following applies: in comparison to the retinoids (Personelli); cited from earlier work.
Series [7] relates to skin. To be noted: documented; cited from earlier work.

Take `OC[C@@H](O)[C@@H](O)[C@H](O)[C@H](O)CO` [D-mannitol]: the solubility in water result in series [1] is “readily soluble”.
As to `O=C(O)CO` [glycolic acid], the “animals showing a minimal oedema and hyperaemia” value in the series with guinea pigs [2] worked out at 40%. Also, the “animals with no edema and no hyperaemia” value in the series with guinea pigs [2] is 60%. Further, in the series with guinea pigs [2], the ideal dose turned out to be 0.01%. Also, the “re-hydrating effect of the skin” value in the series with skin [3] is “remarkable re-hydrating effect”. The tissue finding result is “tissue necrosis” in the series on guinea pigs [4] (0.1 ml at 0.1%, 3rd day); “ulcer” in the series on guinea pigs [4] (0.1 ml at 0.1%, 7th day); “moderate hyperaemia and edema” with guinea pigs [4] (0.1 ml at 0.2%, 3rd day); “normal tissue (regular)” in the series with guinea pigs [4] (0.1 ml at 0.2%, 7th day); “evident hyperaemia edema” in the series on guinea pigs [4] (0.1 ml at 0.3%, 3rd day); “epydermolyse and edema” in the series on guinea pigs [4] (0.1 ml at 0.3%, 7th day). The “adverse reactions in tissues (hyperemia, edema or discreet ecchymosis)” value with human patients [5] is “no adverse reactions”. The local toxicity entry in the series on human patients [6] was “low local toxicity”. The “systemic effect or comedomic action” value with human patients [6] is reported as “no systemic effect or comedomic action”. Also, in the series on skin [7], the “increase in skin moisture” value was 300%.

The record behind these values is patent publication US7887599B2, “Methods of use of biodegradable injectable implants” (priority 2001, dated 2011).
